# Patent US9695155B2, “Herbicidal substituted pyrimidinyloxy benzene compounds” (E. I. DU PONT DE NEMOURS AND COMPANY, priority 2013, dated 2017)
# Columns and labels:
# ragweed = assay: Test A postemergence; format: in vivo, Ambrosia elatior
# How it was run: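 Greenhouse pot test, loam/sand soil. Formulation: non-phytotoxic solvent mix plus surfactant. Pre: directed spray onto soil after sowing. Post: plants at 1–2 leaf, 2–10 cm. Rated visually vs untreated controls at ~10 d, 0 (no effect) to 100 (complete control).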
# sandbur = assay: Test E preemergence; format: in vivo, Cenchrus echinatus; conditions: for Sandbur plant response rating: scale 0 to 100 (0 no effect, 100 complete control); for Plant response rating, Sandbur: scale 0 to 100, 0 no effect, 100 complete control
# Description: (§1) Seeds of plant species selected from corn (Zea mays), soybean (Glycine max), velvetleaf (Abutilon theophrasti), lambsquarters (Chenopodium album), wild poinsettia (Euphorbia heterophylla), palmer pigweed (Amaranthus palmeri), waterhemp (common waterhemp, Amaranthus rudis), surinam grass (Brachiaria decumbens), large (Lg) crabgrass (Digitaria sanguinalis), Brazilian crabgrass (Digitaria horizontalis), fall panicum (Panicum dichotomiflorum), giant foxtail (Setaria faberii), green foxtail (Setaria viridis), goosegrass (Eleusine indica), johnsongrass (Sorghum halepense), ragweed (common ragweed, Ambrosia elatior), barnyardgrass (Echinochloa crus-galli), sandbur (southern sandbur, Cenchrus echinatus), arrowleaf sida (Sida rhombifolia), Italian ryegrass (Lolium multiflorum), dayflower (Virginia (VA) dayflower, Commelina virginica), field bindweed (Convolvulus arvensis), morningglory (Ipomoea coccinea), nightshade (eastern black nightshade, Solanum ptycanthum), kochia (Kochia scoparia), yellow nutsedge (Cyperus esculentus), cocklebur (common cocklebur, Xanthium strumarium), smartweed (ladysthumb smartweed, and hairy beggarticks (Bidens pilosa), were planted into a silt loam soil and treated preemergence with test chemicals formulated in a non-phytotoxic solvent mixture which included a surfactant.
# (§2) At the same time, plants from these crop and weed species and also horseweed (Canada horseweed, Conyza canadensis), waterhemp_RES1, (ALS & Triazine resistant common waterhemp, Amaranthus rudis), and waterhemp_RES2, (ALS & HPPD resistant common waterhemp, Amaranthus rudis) were planted in pots containing Redi-Earth® planting medium (Scotts Company, 14111 Scottslawn Road, Marysville, Ohio 43041) comprising spaghnum peat moss, vermiculite, wetting agent and starter nutrients were treated with postemergence applications of test chemicals formulated in the same manner. Plants ranged in height from 2 to 18 cm for postemergence treatments (1- to 4-leaf stage). Treated plants and controls were maintained in a greenhouse for 14 to 21 days, after which time all species were compared to controls and visually evaluated. Plant response ratings, summarized in Table E, are based on a scale of 0 to 100 where 0 is no effect and 100 is complete control. A dash (-) response means no test result.
# Italian ryegrass = assay: Test E preemergence; format: in vivo, Lolium multiflorum; conditions: for Ryegrass, Italian plant response rating: scale 0 to 100 (0 no effect, 100 complete control); for Plant response rating, Ryegrass, Italian: scale 0 to 100, 0 no effect, 100 complete control
# Description: as §1, §2
# green foxtail = assay: Test E preemergence; format: in vivo, Setaria viridis; conditions: for Foxtail, Green plant response rating: scale 0 to 100 (0 no effect, 100 complete control); for Plant response rating, Foxtail, Green: scale 0 to 100, 0 no effect, 100 complete control
# Description: as §1, §2
# giant foxtail = assay: Test E preemergence; format: in vivo, Setaria faberii; conditions: for Foxtail, Giant plant response rating: scale 0 to 100 (0 no effect, 100 complete control); for Plant response rating, Foxtail, Giant: scale 0 to 100, 0 no effect, 100 complete control
# Description: as §1, §2
# surinam grass = assay: Test E preemergence; format: in vivo, Brachiaria decumbens; conditions: for Surinam Grass plant response rating: scale 0 to 100 (0 no effect, 100 complete control); for Plant response rating, Surinam Grass: scale 0 to 100, 0 no effect, 100 complete control
# Description: as §1, §2
# johnsongrass = assay: Test E preemergence; format: in vivo, Sorghum halepense; conditions: for Johnsongrass plant response rating: scale 0 to 100 (0 no effect, 100 complete control); for Plant response rating, Johnsongrass: scale 0 to 100, 0 no effect, 100 complete control
# Description: as §1, §2
# arrowleaf sida = assay: Test E preemergence; format: in vivo, Sida rhombifolia; conditions: for Arrowleaf Sida plant response rating: scale 0 to 100 (0 no effect, 100 complete control); for Plant response rating, Arrowleaf Sida: scale 0 to 100, 0 no effect, 100 complete control
# Description: as §1, §2
# [1] = 125 g ai/ha, 0 to 100 scale where 0 is no effect and 100 is complete control
# [2] = 500 g ai/ha, 0 to 100 scale where 0 is no effect and 100 is complete control
# [3] = 1000 g ai/ha, 0 to 100 scale, 0 no effect, 100 complete control
# [4] = 31 g ai/ha, 0 to 100 scale, 0 no effect, 100 complete control
compound,measurement,setting,value
CCCOc1cnn(-c2c(C#N)cccc2Oc2ncc(Cl)cn2)c1 [Compound 150],Ragweed plant response rating,ragweed; [1],20
same,"Plant response rating, Ragweed",ragweed; [2],60
N#Cc1cnn(-c2c(C#N)cccc2Oc2ncc(F)cn2)c1 [Compound 111],Sandbur plant response rating,sandbur; 16 g ai/ha,0
same,Sandbur plant response rating,sandbur; 31 g ai/ha,0
same,Sandbur plant response rating,sandbur; 62 g ai/ha,0
same,"Plant response rating, Sandbur",sandbur; 125 g ai/ha,0
same,"Ryegrass, Italian plant response rating",Italian ryegrass; 16 g ai/ha,0
same,"Ryegrass, Italian plant response rating",Italian ryegrass; 31 g ai/ha,0
same,"Ryegrass, Italian plant response rating",Italian ryegrass; 62 g ai/ha,0
same,"Plant response rating, Ryegrass, Italian",Italian ryegrass; 125 g ai/ha,20
same,"Foxtail, Green plant response rating",green foxtail; 16 g ai/ha,0
same,"Foxtail, Green plant response rating",green foxtail; 31 g ai/ha,10
same,"Foxtail, Green plant response rating",green foxtail; 62 g ai/ha,70
same,"Plant response rating, Foxtail, Green",green foxtail; 125 g ai/ha,90
same,"Foxtail, Giant plant response rating",giant foxtail; 16 g ai/ha,0
same,"Foxtail, Giant plant response rating",giant foxtail; 31 g ai/ha,0
same,"Foxtail, Giant plant response rating",giant foxtail; 62 g ai/ha,70
same,"Plant response rating, Foxtail, Giant",giant foxtail; 125 g ai/ha,100
same,Surinam Grass plant response rating,surinam grass; 16 g ai/ha,0
same,Surinam Grass plant response rating,surinam grass; 31 g ai/ha,0
same,Surinam Grass plant response rating,surinam grass; 62 g ai/ha,0
same,"Plant response rating, Surinam Grass",surinam grass; 125 g ai/ha,25
same,Johnsongrass plant response rating,johnsongrass; 16 g ai/ha,0
same,Johnsongrass plant response rating,johnsongrass; 31 g ai/ha,0
same,Johnsongrass plant response rating,johnsongrass; 62 g ai/ha,15
same,"Plant response rating, Johnsongrass",johnsongrass; 125 g ai/ha,70
same,Arrowleaf Sida plant response rating,"arrowleaf sida; 16 g ai/ha, preemergence",40
same,Arrowleaf Sida plant response rating,"arrowleaf sida; 31 g ai/ha, preemergence",50
same,"Plant response rating, Arrowleaf Sida","arrowleaf sida; Preemergence, 62 g ai/ha",70
same,"Plant response rating, Arrowleaf Sida","arrowleaf sida; preemergence, 125 g ai/ha",98
N#Cc1cccc(Oc2ncc(F)cn2)c1-n1cc(Cl)cn1 [Compound 73],Sandbur plant response rating,sandbur; 16 g ai/ha,10
same,Sandbur plant response rating,sandbur; 31 g ai/ha,20
same,Sandbur plant response rating,sandbur; 62 g ai/ha,20
same,"Plant response rating, Sandbur",sandbur; 125 g ai/ha,30
same,"Plant response rating, Sandbur",sandbur; 250 g ai/ha,35
same,"Ryegrass, Italian plant response rating",Italian ryegrass; 16 g ai/ha,0
same,"Ryegrass, Italian plant response rating",Italian ryegrass; 31 g ai/ha,20
same,"Ryegrass, Italian plant response rating",Italian ryegrass; 62 g ai/ha,35
same,"Plant response rating, Ryegrass, Italian",Italian ryegrass; 125 g ai/ha,35
same,"Plant response rating, Ryegrass, Italian",Italian ryegrass; 250 g ai/ha,65
same,"Foxtail, Green plant response rating",green foxtail; 16 g ai/ha,0
same,"Foxtail, Green plant response rating",green foxtail; 31 g ai/ha,20
same,"Foxtail, Green plant response rating",green foxtail; 62 g ai/ha,70
same,"Plant response rating, Foxtail, Green",green foxtail; 125 g ai/ha,80
same,"Plant response rating, Foxtail, Green",green foxtail; 250 g ai/ha,95
same,"Foxtail, Giant plant response rating",giant foxtail; 16 g ai/ha,0
same,"Foxtail, Giant plant response rating",giant foxtail; 31 g ai/ha,20
same,"Foxtail, Giant plant response rating",giant foxtail; 62 g ai/ha,50
same,"Plant response rating, Foxtail, Giant",giant foxtail; 125 g ai/ha,95
same,"Plant response rating, Foxtail, Giant",giant foxtail; 250 g ai/ha,100
same,Surinam Grass plant response rating,surinam grass; 16 g ai/ha,0
same,Surinam Grass plant response rating,surinam grass; 31 g ai/ha,0
same,Surinam Grass plant response rating,surinam grass; 62 g ai/ha,5
same,"Plant response rating, Surinam Grass",surinam grass; 125 g ai/ha,20
same,"Plant response rating, Surinam Grass",surinam grass; 250 g ai/ha,35
same,Johnsongrass plant response rating,johnsongrass; 16 g ai/ha,0
same,Johnsongrass plant response rating,johnsongrass; 31 g ai/ha,20
same,Johnsongrass plant response rating,johnsongrass; 62 g ai/ha,20
same,"Plant response rating, Johnsongrass",johnsongrass; 125 g ai/ha,35
same,"Plant response rating, Johnsongrass",johnsongrass; 250 g ai/ha,85
same,Arrowleaf Sida plant response rating,"arrowleaf sida; 16 g ai/ha, preemergence",5
same,Arrowleaf Sida plant response rating,"arrowleaf sida; 31 g ai/ha, preemergence",40
same,"Plant response rating, Arrowleaf Sida","arrowleaf sida; Preemergence, 62 g ai/ha",80
same,"Plant response rating, Arrowleaf Sida","arrowleaf sida; preemergence, 125 g ai/ha",100
same,"Plant response rating, Arrowleaf Sida","arrowleaf sida; preemergence, 250 g ai/ha",100
COc1cnn(-c2c(C#N)cccc2Oc2ncc(Cl)cn2)c1 [Compound 137],Ragweed plant response rating,ragweed; [1],20
same,"Plant response rating, Ragweed",ragweed; [2],100
Fc1cccc(Oc2ncc(Cl)cn2)c1-n1cc(C2CC2)nn1 [Compound 155],"Plant response rating, Ragweed",ragweed; [3],100
"N#Cc1cccc(Oc2ncc(Cl)cn2)c1-n1cnc(C(F)(F)F)c1 [Compound 252, 3-[(5-chloro-2-pyrimidinyl)oxy]-2-[4-(trifluoromethyl)-1H-imidazol-1-yl]benzonitrile]","Plant response rating, Ragweed",ragweed; [4],20
same,"Plant response rating, Ragweed","ragweed; 125 g ai/ha, 0 to 100 scale, 0 no effect, 100 complete control",70
same,"Plant response rating, Ragweed",ragweed; [2],90
Cc1cnc(Oc2cccc(C#N)c2-n2cc(I)cn2)nc1 [Compound 136],Ragweed plant response rating,ragweed; [1],50
same,"Plant response rating, Ragweed",ragweed; [2],100
FCc1cccc(Oc2ncc(F)cn2)c1-n1cc(C(F)(F)F)cn1 [Compound 118],"Plant response rating, Ragweed",ragweed; [4],70
FCc1cn(-c2c(F)cccc2Oc2ncc(Cl)cn2)nn1 [Compound 154],"Plant response rating, Ragweed",ragweed; [3],100
